# Test results from patent US20240270809A1, “ORAL GLP RECEPTOR AGONISTS” (priority 2020, published 2024).
# Positions of bridges follow the written chain, without caps; N, C: chain ends. Non-standard residues stand in square brackets, D forms with d. Residues, ends and D or L forms follow the SMILES beside them. *: point of attachment. Malonyl(2,2-Me2,histaminyl) = CC(C)(C(=O)NCCc1cnc[nH]1)C(=O)*; Ala(1H-tetrazol-5-yl) = N[C@@H](Cc1nnn[nH]1)C(=O)O; αMePhe(2-F) = C[C@](N)(Cc1ccccc1F)C(=O)O; αMeL = CC(C)C[C@](C)(N)C(=O)O; Nle = CCCC[C@H](N)C(=O)O; Aib = CC(C)(N)C(=O)O
# Assays:
# human GLP2 receptor = target: T1, human GLP2 receptor (Homo sapiens, UniProt O95838); assay: cAMP accumulation assay, functional agonism of human GLP2 receptor; format: cell-based; details: HEK cells infected with human GLP2 receptor BacMam virus, HTRF cAMP; for Emax: HEK293, read-out: Human GLP-2R agonist cAMP Emax; for EC50: read-out: Human GLP-2R agonist cAMP pEC50 (converted)
# T1 construct: expressed in transfected cells; host or cells: HEK cells, BacMam virus transduction
# T1 sequence (O95838 1-553): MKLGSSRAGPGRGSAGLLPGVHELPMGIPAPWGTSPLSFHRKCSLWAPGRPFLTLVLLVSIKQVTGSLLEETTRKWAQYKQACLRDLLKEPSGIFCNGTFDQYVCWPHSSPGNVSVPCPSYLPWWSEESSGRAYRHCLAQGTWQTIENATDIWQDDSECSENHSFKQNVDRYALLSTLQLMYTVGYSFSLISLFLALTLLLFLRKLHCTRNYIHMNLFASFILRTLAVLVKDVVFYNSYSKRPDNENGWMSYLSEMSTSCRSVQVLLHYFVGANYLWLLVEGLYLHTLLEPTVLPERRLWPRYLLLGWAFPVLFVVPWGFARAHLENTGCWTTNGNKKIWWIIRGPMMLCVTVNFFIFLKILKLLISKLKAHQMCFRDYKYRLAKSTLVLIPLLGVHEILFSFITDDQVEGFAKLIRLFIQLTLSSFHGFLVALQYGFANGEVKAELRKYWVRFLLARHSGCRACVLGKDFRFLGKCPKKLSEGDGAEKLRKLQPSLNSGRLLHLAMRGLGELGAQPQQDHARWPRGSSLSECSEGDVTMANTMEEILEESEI
# In short: (§1)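 Frozen HEK cells, previously BacMam-infected 24 h to express either receptor, are stimulated for 45 min at 37° C in IBMX-containing (0.5 mM) HBSS. The reaction is then terminated with HTRF reagents in lysis buffer.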
# human GLP1 receptor = target: T2, human GLP1 receptor (Homo sapiens, UniProt P43220); assay: cAMP accumulation assay, functional agonism of human GLP1 receptor; format: cell-based; details: HEK cells infected with human GLP1 receptor BacMam virus, HTRF cAMP; for Emax: HEK293, read-out: Human GLP-1R agonist cAMP Emax; for EC50: read-out: Human GLP-1R agonist cAMP pEC50 (converted)
# T2 construct: expressed in transfected cells; host or cells: HEK cells, BacMam virus transduction
# T2 sequence (P43220 24-463): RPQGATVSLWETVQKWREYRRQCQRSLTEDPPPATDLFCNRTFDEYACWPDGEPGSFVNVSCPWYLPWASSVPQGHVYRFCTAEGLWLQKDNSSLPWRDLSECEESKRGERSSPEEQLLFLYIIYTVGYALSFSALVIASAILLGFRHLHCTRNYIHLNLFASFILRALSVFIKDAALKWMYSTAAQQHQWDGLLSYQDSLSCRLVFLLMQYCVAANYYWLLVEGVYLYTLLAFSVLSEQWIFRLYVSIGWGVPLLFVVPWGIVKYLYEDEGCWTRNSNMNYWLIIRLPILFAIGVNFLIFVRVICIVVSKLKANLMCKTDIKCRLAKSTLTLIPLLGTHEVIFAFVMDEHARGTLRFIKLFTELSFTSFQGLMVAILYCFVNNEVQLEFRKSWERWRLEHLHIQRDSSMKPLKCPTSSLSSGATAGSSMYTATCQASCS
# In short: as §1
SMILES,Emax (human GLP2 receptor),EC50 (human GLP2 receptor),Emax (human GLP1 receptor),EC50 (human GLP1 receptor)
"CCCC[C@@H]1NC(=O)[C@H](CCC(=O)O)NC(=O)[C@@H](NC(=O)[C@H](CO)NC(=O)[C@](C)(Cc2ccccc2F)NC(=O)[C@H](CO)NC(=O)[C@@H](C)NC(=O)[C@H](CCC(N)=O)NC(=O)C(C)(C)C(=O)NCCc2c[nH]cn2)CCCCNC(=O)C[C@@H](C(=O)N[C@H](C(=O)N[C@@H](CC(C)C)C(=O)N[C@@H](CC(=O)O)C(=O)N[C@H]2CCC(=O)NCCCC[C@@H](C(=O)N[C@@H](CC(=O)O)C(=O)N[C@@H](Cc3ccccc3)C(=O)N[C@H](C(=O)N[C@H]3CCCCNC(=O)C[C@@H](C(=O)N[C@H]4CCC(=O)NCCCC[C@@H](C(N)=O)NC(=O)[C@H]([C@@H](C)O)NC(=O)[C@H]([C@@H](C)CC)NC(=O)[C@H](CCCCN)NC4=O)NC(=O)[C@H]([C@@H](C)CC)NC(=O)[C@H](CC(C)C)NC(=O)[C@H](Cc4c[nH]c5ccccc45)NC3=O)[C@@H](C)CC)NC(=O)[C@H](C)NC(=O)[C@H](C)NC(=O)[C@H](CCCCN)NC2=O)[C@@H](C)CC)NC(=O)[C@@H](Cc2ccccc2)NC1=O [Example 54] ({Malonyl(2,2-Me2,histaminyl)}-Q[dA]S[αMePhe(2-F)]SKE[Nle][dF]DILDEKAAKDFIKWLIDEKITK-NH2; lactam 6-10, 14-18, 22-26, 27-31 (inferred); C-terminus assumed)",101%,31.6 pM,88.8%,631 pM
"CCCC[C@@H]1NC(=O)[C@H](CCC(=O)O)NC(=O)[C@@H](NC(=O)[C@H](CO)NC(=O)[C@H](Cc2ccccc2)NC(=O)[C@H](CO)NC(=O)CNC(=O)[C@H](Cc2nn[nH]n2)NC(=O)C(C)(C)C(=O)NCCc2c[nH]cn2)CCCCNC(=O)C[C@@H](C(=O)N[C@H](C(=O)N[C@@H](CC(C)C)C(=O)N[C@@H](CC(=O)O)C(=O)N[C@@H](CC(C)C)C(=O)N[C@@H](CCCCN)C(=O)N[C@@H](C)C(=O)N[C@@H](C)C(=O)N[C@@H](CCCCN)C(=O)N[C@@H](CC(=O)O)C(=O)N[C@@H](Cc2ccccc2)C(=O)N[C@H](C(=O)N[C@@H](CC(N)=O)C(=O)N[C@@H](Cc2c[nH]c3ccccc23)C(=O)N[C@@H](CC(C)C)C(=O)N[C@H](C(=O)N[C@@H](CCC(N)=O)C(=O)N[C@H](C(=O)N[C@@H](CCCCN)C(=O)N[C@H](C(=O)N[C@H](C(=O)N[C@@H](Cc2ccccc2)C(N)=O)[C@@H](C)O)[C@@H](C)CC)[C@@H](C)O)[C@@H](C)CC)[C@@H](C)CC)[C@@H](C)CC)NC(=O)[C@@H](Cc2ccccc2)NC1=O [Example 82] ({Malonyl(2,2-Me2,histaminyl)}-[Ala(1H-tetrazol-5-yl)]GSFSKE[Nle][dF]DILDLKAAKDFINWLIQTKITF-NH2; lactam 6-10 (inferred); C-terminus assumed)",104%,79.4 pM,94.5%,12600 pM
"CCCC[C@H](NC(=O)[C@H](CCC(=O)O)NC(=O)[C@@H]1CCCCNC(=O)CC[C@H](NC(=O)[C@H](CC(=O)O)NC(=O)C(C)(C)NC(=O)[C@@H](N)Cc2c[nH]cn2)C(=O)N[C@@H](CO)C(=O)N[C@@H](Cc2ccccc2)C(=O)N[C@@H](CO)C(=O)N1)C(=O)N[C@H](Cc1ccccc1)C(=O)N[C@H](C(=O)N[C@H](C(=O)N[C@@H](CC(C)C)C(=O)N[C@@H](CC(=O)O)C(=O)N[C@@H](CC(C)C)C(=O)N[C@@H](CCCCN)C(=O)N[C@@H](C)C(=O)N[C@@H](C)C(=O)N[C@@H](CCCCN)C(=O)N[C@@H](CC(=O)O)C(=O)N[C@@H](Cc1ccccc1)C(=O)N[C@H](C(=O)N[C@@H](CC(N)=O)C(=O)N[C@@H](Cc1c[nH]c2ccccc12)C(=O)N[C@@H](CC(C)C)C(=O)N[C@H](C(=O)N[C@@H](CCC(N)=O)C(=O)N[C@H](C(=O)N[C@H]1CCC(=O)NCCCC[C@@H](C(N)=O)NC(=O)[C@H]([C@@H](C)O)NC(=O)[C@H]([C@@H](C)CC)NC1=O)[C@@H](C)O)[C@@H](C)CC)[C@@H](C)CC)[C@@H](C)CC)[C@@H](C)O [Example 104] (H-H[Aib]DESFSKE[Nle][dF]TILDLKAAKDFINWLIQTEITK-NH2; lactam 4-8, 30-33 (inferred); C-terminus assumed)",102%,501 pM,88.3%,3980 pM

# Results, then the compound that gave them:
Emax (human GLP2 receptor),EC50 (human GLP2 receptor),Emax (human GLP1 receptor),EC50 (human GLP1 receptor),SMILES
103%,31.6 pM,95.2%,12600 pM,CCCC[C@@H]1NC(=O)[C@H](CCC(=O)O)NC(=O)[C@@H](NC(=O)[C@H](CO)NC(=O)[C@H](Cc2ccccc2)NC(=O)[C@H](CO)NC(=O)CNC(=O)[C@H](CC(=O)O)NC(=O)C(C)(C)NC(=O)[C@@H](N)Cc2c[nH]cn2)CCCCNC(=O)C[C@@H](C(=O)N[C@H](C(=O)N[C@@H](CC(C)C)C(=O)N[C@@H](CC(=O)O)C(=O)N[C@@H](CC(C)C)C(=O)N[C@@H](CCCCN)C(=O)N[C@@H](C)C(=O)N[C@@H](C)C(=O)N[C@@H](CCCCN)C(=O)N[C@@H](CC(=O)O)C(=O)N[C@@H](Cc2ccccc2)C(=O)N[C@H](C(=O)N[C@@H](CC(N)=O)C(=O)N[C@@H](Cc2c[nH]c3ccccc23)C(=O)N[C@@H](CC(C)C)C(=O)N[C@H](C(=O)N[C@@H](CCC(N)=O)C(=O)N[C@H](C(=O)N[C@@H](CCCCN)C(=O)N[C@H](C(=O)N[C@H](C(=O)N[C@@H](CC(=O)O)C(N)=O)[C@@H](C)O)[C@@H](C)CC)[C@@H](C)O)[C@@H](C)CC)[C@@H](C)CC)[C@@H](C)CC)NC(=O)[C@@H](Cc2ccccc2)NC1=O [Example 85] (H-H[Aib]DGSFSKE[Nle][dF]DILDLKAAKDFINWLIQTKITD-NH2; lactam 8-12; N-terminus and C-terminus assumed)
95%,501 pM,83.7%,6310 pM,"CCCC[C@H](NC(=O)[C@H](CCC(=O)O)NC(=O)[C@@H]1CC(=O)NCCCC[C@H](NC(=O)[C@H](CCC(N)=O)NC(=O)C(C)(C)C(=O)NCCc2c[nH]cn2)C(=O)N[C@@H](CO)C(=O)N[C@@H](Cc2ccccc2)C(=O)N[C@@H](CO)C(=O)N1)C(=O)N[C@H](Cc1ccccc1)C(=O)N[C@H](C(=O)N[C@@](C)(CC(C)C)C(=O)N[C@@H](CC(C)C)C(=O)N[C@@H](CC(=O)O)C(=O)N[C@H]1CCC(=O)NCCCC[C@@H](C(=O)N[C@@H](CC(=O)O)C(=O)N[C@@H](Cc2ccccc2)C(=O)N[C@H](C(=O)N[C@H]2CCC(=O)NCCCC[C@@H](C(=O)N[C@H]3CCC(=O)NCCCC[C@@H](C(N)=O)NC(=O)[C@H]([C@@H](C)O)NC(=O)[C@H]([C@@H](C)CC)NC(=O)[C@H](CCCCN)NC3=O)NC(=O)[C@H]([C@@H](C)CC)NC(=O)[C@H](CC(C)C)NC(=O)[C@H](Cc3c[nH]c4ccccc34)NC2=O)[C@@H](C)CC)NC(=O)[C@H](C)NC(=O)[C@H](C)NC(=O)[C@H](CCCCN)NC1=O)[C@@H](C)O [Example 69] ({Malonyl(2,2-Me2,histaminyl)}-QKSFSDE[Nle][dF]T[αMeL]LDEKAAKDFIEWLIKEKITK-NH2; lactam 2-6, 14-18, 22-26, 27-31 (inferred); C-terminus assumed)"
103%,7.94 pM,96.8%,200 pM,"CCCC[C@@H]1NC(=O)[C@H](CCC(=O)O)NC(=O)[C@@H](NC(=O)[C@H](CO)NC(=O)[C@H](Cc2ccccc2)NC(=O)[C@H](CO)NC(=O)[C@@H](C)NC(=O)[C@H](Cc2nn[nH]n2)NC(=O)C(C)(C)C(=O)NCCc2c[nH]cn2)CCCCNC(=O)C[C@@H](C(=O)N[C@@](C)(CC(C)C)C(=O)N[C@@H](CC(C)C)C(=O)N[C@@H](CC(=O)O)C(=O)N[C@H]2CCC(=O)NCCCC[C@@H](C(=O)N[C@@H](CC(=O)O)C(=O)N[C@@H](Cc3ccccc3)C(=O)N[C@H](C(=O)N[C@@H](CC(N)=O)C(=O)N[C@@H](Cc3c[nH]c4ccccc34)C(=O)N[C@@H](CC(C)C)C(=O)N[C@H](C(=O)N[C@@H](CCC(N)=O)C(=O)N[C@H]3CCC(=O)NCCCC[C@@H](C(N)=O)NC(=O)[C@H]([C@@H](C)O)NC(=O)[C@H]([C@@H](C)CC)NC(=O)[C@H](CCCCN)NC3=O)[C@@H](C)CC)[C@@H](C)CC)NC(=O)[C@H](C)NC(=O)[C@H](C)NC(=O)[C@H](CCCCN)NC2=O)NC(=O)[C@@H](Cc2ccccc2)NC1=O [Example 24] ({Malonyl(2,2-Me2,histaminyl)}-[Ala(1H-tetrazol-5-yl)][dA]SFSKE[Nle][dF]D[αMeL]LDEKAAKDFINWLIQEKITK-NH2; lactam 6-10, 14-18, 27-31 (inferred); C-terminus assumed)"
